For data set [1], the system named is DENV2 replicon. The experiment in a line: microbe, parasite or virus in culture. The data set is classed as cell-based, Dengue Virus 2 (DENV2). Particulars: for inhibition at 50 µM / EC50: Dengue virus; for inhibition at 50 µM: DENV2, BHK-21, read-out: % Replicon Inhibition (Means ± SEM) DENV2; for EC50: DENV2, BHK-21, read-out: DENV replicon EC50. (In antiviral work, replicon cells carry a viral genome segment that copies itself.)

Data set [2] has as its system WNV replicon. Nature of the data set: microbe, parasite or virus in culture. The data set is classed as cell-based, West Nile virus (WNV). As to conditions: for inhibition at 50 µM / EC50: West Nile virus, Vero; for inhibition at 50 µM: read-out: % Replicon Inhibition (Means ± SEM) WNV; for EC50: read-out: WNV replicon EC50.
A short description of data set [3]: in vitro. Particulars: hamster.
Data set [4] can be described thus: in vitro. Particulars: African green monkey.
Data set [5] relates to BHK-21 cells. Particulars: hamster.
Data set [6] concerns Vero cells. As to conditions: African green monkey.

Data on two compounds can be found in US20170165254A1, “TREATING FLAVIVIRUS INFECTIONS WITH AMODIAQUINE AND DERIVATIVES THEREOF” (GEORGETOWN UNIVERSITY, priority 2014, published 2017).

Broadly, the inhibition is the share of the control response that was lost under treatment. What is called EC50 is the concentration that produces a half-maximal response. Turning to `CC(CCc1ccc(N(CCCl)CCCl)cc1)Nc1ccnc2cc(Cl)ccc12` (stereo not shown) [chloroquine ethyl phenyl mustard], in data set [1], the “% Replicon Inhibition (Means ± SEM) DENV2” value is given as 99.8 ± 0.03%, the inhibition at 50 µM was over 99% and the 50% effective concentration (EC50) stood at 3.6 ± 0.83 µM. Moreover, in data set [2], the “% Replicon Inhibition (Means ± SEM) WNV” value is listed as 99.5 ± 0.05%, the inhibition at 50 µM is over 99% and the EC50 came out at 1.55 ± 0.4 µM. For the same compound, the CC50 in data set [3] came to 74.1 ± 21.5 µM. In addition, the CC50 in data set [4] came to 5.02 ± 1.23 µM.
With `CC(CCCN(CCCl)CCCl)Nc1ccnc2cc(Cl)ccc12` (stereo not shown) [chloroquine mustard], in data set [1], the “% Replicon Inhibition (Means ± SEM) DENV2” value is 99.6 ± 0.32%, the inhibition at 50 µM was over 99% and the EC50 is 2.9 ± 0.78 µM. For the same compound, in data set [2], the “% Replicon Inhibition (Means ± SEM) WNV” value stood at 99.8 ± 0.03%, the inhibition at 50 µM was over 99% and the EC50 turned out to be 2.95 ± 0.77 µM. The compound also registered a CC50 in data set [5] of 30.5 ± 9.77 µM. In addition, the CC50 in data set [6] was 3.64 ± 0.93 µM.
